Reference: PubChem BioAssay AID256 (DTP/NCI, 2004)
Where “and” joins values, the source holds several entries; their conditions need not be identical. Equal entries are not always repeated. Toxic doses and inconclusive results are not listed.

Tested on: CD2F1 mice, L1210 leukemia ip, survival T/C
Experiment: NCI In Vivo Anticancer Drug Screen. Data for tumor model L1210 Leukemia (intraperitoneal) in CD2F1 (CDF1) mice
Conditions: endpoint: mean survival time, higher = longer survival
Outline: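 Compound-dosed mice with transplantable tumor versus matched vehicle controls; endpoint ratio T/C reported.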

[1] = dose: 100.0 mg/kg/injection, schedule: Q04DX003 (ip), vehicle: saline with Tween-80
[2] = dose: 200.0 mg/kg/injection, schedule: Q04DX003 (ip), vehicle: saline with Tween-80
[3] = dose: 25.0 mg/kg/injection, schedule: Q01DX009 (ip), vehicle: saline with Tween-80
[4] = dose: 25.0 mg/kg/injection, schedule: Q01DX009 (ip), vehicle: Klucel (hydroxypropylcellulose) (HPC)
[5] = dose: 50.0 mg/kg/injection, schedule: Q01DX009 (ip), vehicle: Klucel (hydroxypropylcellulose) (HPC)
[6] = dose: 50.0 mg/kg/injection, schedule: Q01DX009 (ip), vehicle: saline with Tween-80
[7] = dose: 100.0 mg/kg/injection, schedule: Q01DX009 (ip), vehicle: saline with Tween-80
[8] = dose: 200.0 mg/kg/injection, schedule: Q01DX009 (ip), vehicle: saline with Tween-80
[9] = dose: 400.0 mg/kg/injection, schedule: Q01DX009 (ip), vehicle: saline with Tween-80
[10] = dose: 400.0 mg/kg/injection, schedule: Q04DX003 (ip), vehicle: saline with Tween-80

In the case of `Cc1ccc(C2CC3c4ccccc4C2C2CCCCN32)cc1` (configuration not stated), the T/C (dose: 1.56 mg/kg/injection, schedule: Q01DX009 (ip), vehicle: water) is reported as 88 % of control and 86 % of control, the T/C (dose: 3.13 mg/kg/injection, schedule: Q01DX009 (ip), vehicle: water) is reported as 86 % of control and the T/C (dose: 6.25 mg/kg/injection, schedule: Q01DX009 (ip), vehicle: water) is reported as 88 % of control. For the same compound, the T/C (dose: 12.5 mg/kg/injection, schedule: Q01DX009 (ip), vehicle: water) was 88 % of control and 93 % of control and the T/C (dose: 25.0 mg/kg/injection, schedule: Q01DX009 (ip), vehicle: water) was 89 % of control and 102 % of control.

For `O=[N+]([O-])c1ccc2c(c1)C(=Nc1ccc3ccccc3c1)c1ccccc1-2`, the T/C [1] was 98 % of control and the T/C [2] was 86 % of control.

For `Nc1ccc2ccccc2c1-c1c(N)ccc2ccccc12`, the T/C (dose: 18.7 mg/kg/injection, schedule: Q04DX002 (ip), vehicle: saline with Tween-80) was 91 % of control, the T/C (dose: 37.5 mg/kg/injection, schedule: Q04DX002 (ip), vehicle: saline with Tween-80) was 91 % of control and the T/C (dose: 75.0 mg/kg/injection, schedule: Q04DX002 (ip), vehicle: saline with Tween-80) was 102 % of control.

`CC(O)C(NC(=O)c1cnc(OCc2ccccc2)nc1N)C(=O)O` (configuration not stated) was tested, and the T/C (dose: 6.25 mg/kg/injection, schedule: Q01DX009 (ip), vehicle: saline with Tween-80) was 104 % of control, the T/C (dose: 12.5 mg/kg/injection, schedule: Q01DX009 (ip), vehicle: saline with Tween-80) was 100 % of control and the T/C [3] was 104 % of control.

With `COC(=O)C1=NNC(C(=O)OC)=C(c2ccccc2)C(c2ccccc2)=N1` the T/C (dose: 12.5 mg/kg/injection, schedule: Q01DX009 (ip), vehicle: Klucel (hydroxypropylcellulose) (HPC)) was 95 % of control, the T/C [4] was 91 % of control and the T/C [5] was 98 % of control. For the same compound, the T/C (dose: 100.0 mg/kg/injection, schedule: Q01DX009 (ip), vehicle: Klucel (hydroxypropylcellulose) (HPC)) was 101 % of control, the T/C (dose: 200.0 mg/kg/injection, schedule: Q01DX009 (ip), vehicle: Klucel (hydroxypropylcellulose) (HPC)) was 109 % of control and the T/C (dose: 400.0 mg/kg/injection, schedule: Q01DX009 (ip), vehicle: Klucel (hydroxypropylcellulose) (HPC)) was 114 % of control.

With `COc1ccc2c(c1)C=CC(C#N)N2` (configuration not stated) the T/C [1] was 87 % of control and the T/C [2] was 91 % of control.

With `O=C(Nc1nccs1)c1ccc(Cl)cc1` the T/C [6] was 96 % of control, the T/C [7] was 96 % of control and the T/C [8] was 92 % of control.

`COc1ccc(C2=N/C(=C\c3ccccc3)C(=O)O2)cc1` was tested, and the T/C [7] was 96 % of control, the T/C [1] was 93 % of control and the T/C [8] was 90 % of control. For the same compound, the T/C [2] was 92 % of control, the T/C [9] was 98 % of control and the T/C [10] was 89 % of control.

For `Nc1cc(N)c2[nH]cnc2n1`, the T/C (dose: 100.0 mg/kg/injection, schedule: Q01DX001 (ip), vehicle: other) was 104 % of control, the T/C (dose: 200.0 mg/kg/injection, schedule: Q01DX001 (ip), vehicle: other) was 97 % of control and the T/C (dose: 400.0 mg/kg/injection, schedule: Q01DX001 (ip), vehicle: other) was 98 % of control.

With `CCCCCCCCCCCCCCCCOc1ccccc1CNc1cccc(S(=O)(=O)F)c1` the T/C [7] was 94 % of control, the T/C [1] was 95 % of control and the T/C [8] was 91 % of control. For the same compound, the T/C [2] was 94 % of control, the T/C [9] was 87 % of control and the T/C [10] was 100 % of control.

In the case of `C[N+](C)(C)CCP(=O)([O-])O`, the T/C (dose: 100.0 mg/kg/injection, schedule: Q04DX003 (ip), vehicle: saline) is reported as 98 % of control, the T/C (dose: 200.0 mg/kg/injection, schedule: Q04DX003 (ip), vehicle: saline) is reported as 101 % of control and the T/C (dose: 400.0 mg/kg/injection, schedule: Q04DX003 (ip), vehicle: saline) is reported as 101 % of control.

In the case of `CCOC(=O)Nc1cccc2c1-c1ccccc1/C2=N\NC(N)=S`, the T/C (dose: 50.0 mg/kg/injection, schedule: Q01DX001 (ip), vehicle: carboxymethylcellulose (CMC)) is reported as 102 % of control, the T/C (dose: 100.0 mg/kg/injection, schedule: Q01DX001 (ip), vehicle: carboxymethylcellulose (CMC)) is reported as 104 % of control and the T/C (dose: 200.0 mg/kg/injection, schedule: Q01DX001 (ip), vehicle: carboxymethylcellulose (CMC)) is reported as 98 % of control. For the same compound, the T/C (dose: 400.0 mg/kg/injection, schedule: Q01DX001 (ip), vehicle: carboxymethylcellulose (CMC)) was 98 % of control.

`CCN(CC)C(=O)Nc1ccccc1Cl` was tested, and the T/C (dose: 100.0 mg/kg/injection, schedule: Q04DX002 (ip), vehicle: saline with Tween-80) was 105 % of control, the T/C (dose: 200.0 mg/kg/injection, schedule: Q04DX002 (ip), vehicle: saline with Tween-80) was 108 % of control and the T/C (dose: 400.0 mg/kg/injection, schedule: Q04DX002 (ip), vehicle: saline with Tween-80) was 94 % of control.

In the case of `O=C(N/N=C/c1ccc(Cl)cc1)c1ccc(Cl)cc1`, the T/C [1] is reported as 101 % of control, the T/C [2] is reported as 93 % of control and the T/C [10] is reported as 108 % of control.

With `O=C(Nc1ccc(CCO)cc1)Nc1ccc(F)c([N+](=O)[O-])c1` the T/C (dose: 100.0 mg/kg/injection, schedule: Q01DX001 (ip), vehicle: saline with Tween-80) was 98 % of control, the T/C [7] was 93 % of control and the T/C [1] was 101 % of control. For the same compound, the T/C (dose: 200.0 mg/kg/injection, schedule: Q01DX001 (ip), vehicle: saline with Tween-80) was 96 % of control, the T/C [8] was 94 % of control and the T/C [2] was 98 % of control. For the same compound, the T/C (dose: 400.0 mg/kg/injection, schedule: Q01DX001 (ip), vehicle: saline with Tween-80) was 92 % of control, the T/C [9] was 93 % of control and the T/C [10] was 102 % of control.

In the case of `CCN(C(=O)CCl)c1ccccc1C`, the T/C [1] is reported as 92 % of control and the T/C [2] is reported as 89 % of control.

In the case of `O=C1C(Cl)=C(Nc2nc3ccccc3s2)C(=O)c2ccccc21`, the T/C (dose: 25.0 mg/kg/injection, schedule: Q01DX001 (ip), vehicle: Klucel (hydroxypropylcellulose) (HPC)) is reported as 102 % of control, the T/C (dose: 50.0 mg/kg/injection, schedule: Q01DX001 (ip), vehicle: Klucel (hydroxypropylcellulose) (HPC)) is reported as 96 % of control and the T/C (dose: 100.0 mg/kg/injection, schedule: Q01DX001 (ip), vehicle: Klucel (hydroxypropylcellulose) (HPC)) is reported as 98 % of control.

With `NC(=O)c1nn(C2OC(CO)C(O)C2O)c2ncnc(N)c12` (configuration not stated) the T/C [4] was 207 % of control and the T/C [5] was 200 % of control.

`CN(C)N=Nc1c(F)c(F)cc(F)c1F` was tested, and the T/C [3] was 102 % of control, the T/C [6] was 107 % of control and the T/C [8] was 151 % of control. The T/C [9] was 112 % of control.
